{"source": "patent US20160256421A1", "about": "“COMPOSITION CONTAINING EUGENOL AS ACTIVE INGREDIENT FOR PREVENTING OR TREATING ATOPIC DERMATITIS” (SEOUL NATIONAL UNIVERSITY R&DB FOUNDATION, priority 2013, published 2016)", "key": {"[1]": {"tested_on": "histamine-induced pruritus", "experiment": "Scratch test, histamine-induced pruritus, simultaneous intradermal injection of compound", "type": "in vivo, mice", "conditions": "10 μM compound injected simultaneously with 500 μg/site histamine, 30 minutes, histamine only about 152, FIG. 11", "procedure": "In order to confirm reactions to pruritus-inducing substances such as histamine or serotonin in the present invention, a behavior experiment was conducted. In order to induce scratching, histamine and serotonin which are known to induce itchy sensation in humans were used. Here, histamine or serotonin was diluted with sterilized saline solution. On the day before the experiment, experimental animals were anaesthetized by mixing zolitel and rompun at a ratio of 1:4 and injecting 1 mL/kg thereof, and hair on the nape areas of a 1.5 cm×1.5 cm square was removed using a clipper on the nape of experimental animals. On the day of the experiment, a box of 10 cm×20 cm×15 cm dimensions was produced and mice were stabilized for 30 minutes therein. Thereafter, 100 μL of solvents or the experimental substance was applied on the back of the neck of mice, and after 30 minutes, 50 μL of pruritus-inducing substances (500 μg/site of histamine or 10 μg/site of serotonin) was injected at the back of the neck of experimental animals via intradermal injection. Next, reactions of experimental animals were video-recorded for 30 minutes, and a scratch test was conducted by counting up and down of a hind paw of an experimental animal to the injected area in the back of the neck as one scratch. […]\nAs described in Experimental Example 4, in order to induce scratching, experimental animals in the control group were injected with 500 μg/site of histamine at the back of the neck via intradermal injection, and along with the histamine, the experimental group was simultaneously injected with 10 μM isoeugenol (mixture of cis and trans, 82 ng) and 10 μM methyleugenol (89 ng) as representative eugenol derivatives, as well as 10 μM eugenol (82 ng). Thereafter, the reactions of experimental animals were video-recorded for 30 minutes, and a scratch test was conducted by counting the action of going up and down of a hind paw of an experimental animal to the injected area in the back of the neck as one scratch."}, "[2]": {"tested_on": "atopic dermatitis animal models (oxalozone-induced)", "experiment": "Visual inspection of dermal recovery in atopic dermatitis animal models", "type": "in vivo, balb/c nude mice", "conditions": "200 μL of 3 wt % eugenol cream, same time of a day for a week, FIG. 2", "text": "7-week-old male C57/BL6 mice were used in the present experiment, and in order to produce atopic dermatitis models, 7-week-old male balb/c nude mice were purchased from Orient Bio (Korea) and used. The method described in the manuscript of Kuraishi et al., presented the original form of mouse models developed in the present invention (Kuraishi et al., 1995). The group consisting of male BL6/C57 mice weighing 20 g to 23 g was used in the experiment. The experiment proceeded after experimental animals were accustomed to the conventional environment of 23±2° C. and 55±15% humidity for 3 days, in which light was constrained from 8 pm to 8 am, and were given ad libitum access to food and water. Atopic dermatitis animal models were produced with reference to Hatano et al. (2011), and it is known that TRPV1 is mediated in the developmental mechanism. Particularly, balb/c nude mice were used to produce the atopic dermatitis animal models. In the first two days, 50 μL of 5% oxalozone was treated to sensitize the back of the neck of experimental animals, and a week of recovery followed. In the next 4 weeks, 60 μL of 0.5% oxalozone was treated for a total of 12 times to complete atopic dermatitis animal models (FIG. 1). […]"}, "[3]": {"tested_on": "histamine-induced pruritus", "experiment": "Scratch test, histamine-induced pruritus, cream applied", "type": "in vivo, mice", "conditions": "histamine 500 μg intradermal", "text": "(§1) 7-week-old male C57/BL6 mice were used in the present experiment, and in order to produce atopic dermatitis models, 7-week-old male balb/c nude mice were purchased from Orient Bio (Korea) and used. The method described in the manuscript of Kuraishi et al., presented the original form of mouse models developed in the present invention (Kuraishi et al., 1995). The group consisting of male BL6/C57 mice weighing 20 g to 23 g was used in the experiment. The experiment proceeded after experimental animals were accustomed to the conventional environment of 23±2° C. and 55±15% humidity for 3 days, in which light was constrained from 8 pm to 8 am, and were given ad libitum access to food and water. In order to confirm reactions to pruritus-inducing substances such as histamine or serotonin in the present invention, a behavior experiment was conducted. In order to induce scratching, histamine and serotonin which are known to induce itchy sensation in humans were used. Here, histamine or serotonin was diluted with sterilized saline solution. […] Next, reactions of experimental animals were video-recorded for 30 minutes, and a scratch test was conducted by counting up and down of a hind paw of an experimental animal to the injected area in the back of the neck as one scratch. […]"}, "[4]": {"tested_on": "serotonin-induced pruritus", "experiment": "Scratch test, serotonin-induced pruritus, cream applied", "type": "in vivo, mice", "conditions": "serotonin 10 μg", "text": "as §1"}, "[5]": {"tested_on": "mechanical pain", "experiment": "von-Frey test, acute mechanical pain reactions", "type": "in vivo, mice", "conditions": "3 wt % eugenol", "procedure": "However, effects of blocking pain by blocking Na ion channels are induced by blocking all the dermal sensory information and thus are non-specific phenomena. Therefore, von-Frey test was conducted to examine whether antipruritic effects are induced by reduced excitation via blocking voltage-dependent Na ion channels of sensory nerves by confirming whether eugenol at a pruritus-effective concentration blocks pain reactions. With reference to Chaplan et al. (1994), hind paws of experimental animals were stimulated with von-Frey filaments (0.02 g to 4 g), and 50% avoidance reactions were measured. Through this process, avoidance reactions to mechanical stimulations were measured and assessed as a reaction threshold."}, "[6]": {"tested_on": "heat pain (capsaicin receptors)", "experiment": "Hargreaves test, acute heat pain reactions", "type": "in vivo, mice", "conditions": "3 wt % eugenol compared to the base cream", "procedure": "In order to examine whether 3 wt % eugenol acts on capsaicin receptors and effects behavioral reactions to heat stimulation, Hargreaves test was conducted. With reference to Hargreaves et al. (1988), heat stimulation by light was delivered to a hind paw of a subject, and the corresponding avoidance reaction time was measured."}, "[7]": {"molecular_target": "TRPV1 (Homo sapiens, UniProt Q8NER1)", "sequence (Q8NER1 whole entry, species assumed)": "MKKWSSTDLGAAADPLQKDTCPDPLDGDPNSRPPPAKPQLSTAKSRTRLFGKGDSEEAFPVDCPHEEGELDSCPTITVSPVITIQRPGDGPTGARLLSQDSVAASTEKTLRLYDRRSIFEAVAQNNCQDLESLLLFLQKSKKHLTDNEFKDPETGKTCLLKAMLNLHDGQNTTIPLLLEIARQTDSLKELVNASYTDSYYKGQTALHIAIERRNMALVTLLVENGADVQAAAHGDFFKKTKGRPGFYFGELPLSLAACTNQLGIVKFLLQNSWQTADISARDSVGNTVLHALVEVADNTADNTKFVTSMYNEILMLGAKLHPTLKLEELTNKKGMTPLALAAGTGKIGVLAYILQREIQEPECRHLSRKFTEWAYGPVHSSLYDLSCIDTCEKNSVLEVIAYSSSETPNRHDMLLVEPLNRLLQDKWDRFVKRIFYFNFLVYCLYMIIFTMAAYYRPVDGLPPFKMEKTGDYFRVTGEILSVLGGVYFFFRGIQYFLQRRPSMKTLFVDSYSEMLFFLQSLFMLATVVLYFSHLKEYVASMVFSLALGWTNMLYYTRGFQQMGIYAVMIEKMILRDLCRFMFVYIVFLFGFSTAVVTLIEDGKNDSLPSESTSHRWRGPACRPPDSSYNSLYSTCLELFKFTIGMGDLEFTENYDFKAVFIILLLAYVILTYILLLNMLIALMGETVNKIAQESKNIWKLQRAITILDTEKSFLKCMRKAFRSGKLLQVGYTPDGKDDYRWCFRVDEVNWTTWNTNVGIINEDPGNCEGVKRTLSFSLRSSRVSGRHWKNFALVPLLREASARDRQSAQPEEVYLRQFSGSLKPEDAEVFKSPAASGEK", "conditions": "high concentration; cited from earlier work"}, "[8]": {"conditions": "cited from earlier work"}}}
{"compound": "CC=Cc1ccc(O)c(OC)c1", "note": "(racemic) [isoeugenol, (E) or (Z)-2-methoxy-4-(prop-1-enyl)phenol]", "values": [{"measurement": "number of scratching on average", "setting": "[1]", "value": "about 80 times"}]}
{"compound": "C=CCc1ccc(O)c(OC)c1", "note": "[eugenol, 4-allyl-2-methoxyphenol]", "values": [{"measurement": "dermal recovery from atopic dermatitis (visual inspection)", "setting": "[2]", "value": "recovered skin to the normal level"}, {"measurement": "reduction of pruritus reactions", "setting": "[3]; 3 wt % eugenol cream, 30 minutes", "value": "at least 40%"}, {"measurement": "blocking effects on histamine-dependent pruritus", "setting": "[3]; 10 wt % eugenol cream", "value": "increased blocking effects on histamine-dependent pruritus"}, {"measurement": "antipruritic effects on serotonin-induced pruritus", "setting": "[4]; 100 μL of 3 wt % eugenol", "value": "antipruritic effects were not observed"}, {"measurement": "antipruritic effects on serotonin-induced pruritus", "setting": "[4]; 100 μL of 10 wt % eugenol", "value": "showed blocking of serotonin-induced pruritus"}, {"measurement": "number of scratching on average", "setting": "[1]", "value": "about 45 times"}, {"measurement": "mechanical pain, 50% avoidance reaction threshold (von-Frey)", "setting": "[5]", "value": "did not show a significant difference"}, {"measurement": "avoidance reaction in response to heat pain (Hargreaves)", "setting": "[6]", "value": "significantly increased avoidance reaction"}, {"measurement": "concentration at which TRPV1 is activated", "setting": "[7]", "value": "≥ 1", "unit": "mM"}, {"measurement": "solubility in organic solvents", "setting": "[8]", "value": "high"}, {"measurement": "solubility in water", "setting": "[8]", "value": "low"}]}
{"compound": "C=CCc1ccc(OC)c(OC)c1", "note": "[methyleugenol]", "values": [{"measurement": "number of scratching on average", "setting": "[1]", "value": 99, "unit": "times"}]}
